Earlier results as cited in patent US20030116748A1, “Environmentally friendly compositions having anti-icing, deicing or graffiti prevention properties” (priority 1995, published 2003).
Where two headings read alike, the source gives them in different places.

Key:
[1] = for OSHA PEL: 8 hour time-weighted average
[2] = individual component at full concentration

OCCO [Ethylene Glycol]
Permissible concentration limits, Water (Arizona, Massachusetts, Maine): 5.50 (Arizona, mg/L | Permissible concentration limits, Water (Connecticut): 0.10 (Connecticut) mg/L | Permissible concentration limits, Air (Federal): 125 (Federal) mg/m^3 | Permissible concentration limits, Air (Massachusetts): 0.17 mg/m^3 | Permissible concentration limits, Air (Nevada): 2.98 (Nevada) mg/m^3 | Permissible concentration limits, Water (New Jersey): 0.29 (New Jersey) mg/L | Permissible concentration limits, Air (North Dakota): 1.25 (North mg/m^3 | Permissible concentration limits, Water (U.S. EPA): 0.14 (U.S. EPA) mg/L | Permissible concentration limits, Air (Virginia): 1.00 (Virginia) mg/m^3

CC(C)O [Example 2-Propanol, 2-Propanol]
OSHA PEL [1]: 400 ppm | OSHA PEL ([1]; value in brackets): 980 mg/m^3 | NIOSH ([1]; 10 hour time-weighted average): 400 ppm | NIOSH (STEL) ([1]; Short Term Exposure Limit): 500 ppm | ACGIH TLV ([1]; time-weighted average): 400 ppm | Solubility in Water [2]: miscible

OCC(O)CO [Glycerin, 1,2,3-Propanetriol]
Solubility in Water [2]: miscible

CC(O)CO (centres unmarked) [Propylene Glycol, 1,2-propanediol]
Permissible concentration limits, Air (Federal): 156 (Federal) mg/m^3
